Consider seven compounds from patent US20220257552A1, “METHODS OF PRESCREENING AND TREATING BREAST CANCERS WITH SELECTIVE ANDROGEN RECEPTOR MODULATORS” (priority 2021, published 2022).

Holding throughout (type): cell-based
In test [1] the test system is MDA-MB-231 triple negative breast cancer cells. In words: SRB cell viability, MDA-MB-231 cells infected with AR adenovirus. Here is the method:
(§1) The SRB assay was used to determine cell number during cytotoxocity experiments. The following protocol was used: • 1. Cells were detached with 0.25% trypsin. • 2. Experimental cultures were cultured in 96-well microtiter plates (200 μL growth medium per well; 1,000-200,000 cells per well). • 3. Cultures were fixed with 50 μL 50% TCA (4° C.). (see cell fixation protocol for details). • 4. Fixed cells were stained with 50 μL 0.4% (wt/vol) SRB in 1% acetic acid for 10 minutes. • 5. SRB was removed and the cultures were quickly* rinsed 5 times with 1% acetic acid to remove unbound dye.** • 6. Cultures were air-dried overnight until there was no visible moisture. • 7. The cellular protein-bound SRB was dissolved with 200 μL unbuffered Tris base (10 mM, pH 10.5) for 30 minutes on a rocking platform shaker. • 8. Absorbance was read at 540 nm. * quickly performing rinsing process was to prevent desorption of protein-bound SRB ** completely removed residual wash solution by sharply flicking plates over sink.
The following protocol was used for fixing cells: • a. 50 μL of 50% TCA (4° C.) was gently layered on the top of growth medium in each well to make a final TCA concentration of 10%. • b. Cultures were incubated at 4° C. for 1 hour. • c. Cultures were washed 5 times with tap water to remove TCA, growth medium, low-molecular-weight metabolites, and serum protein. • d. Plates were air-dried until there was no visible moisture.
Cells were treated in charcoal stripped FBS (FIGS. 4A, 4C, 4E, 4G, 4I, 4K, 4M and 4O) or full serum (FIGS. 4B, 4D, 4F, 4H, 4J, 4L, 4N and 4P) for 3 days, fixed and stained with […] (SRB) to measure cell viability. Anti-proliferative IC50 values were calculated in breast cancer cells and compared to transactivation values, i.e., EC50 (agonists) and IC50 (antagonists) values, generated in HEK-293 cells.

For test [2], the system named is HCC-38 triple negative breast cancer cells. In words: SRB cell viability, HCC-38 cells infected with AR adenovirus. The following applies: 3 days. How it is done: as §1
The following protocol was used for fixing cells: • a. 50 μL of 50% TCA (4° C.) was gently layered on the top of growth medium in each well to make a final TCA concentration of 10%. • b. Cultures were incubated at 4° C. for 1 hour. • c. Cultures were washed 5 times with tap water to remove TCA, growth medium, low-molecular-weight metabolites, and serum protein. • d. […]

Test [3] has as its system MDA-MB-231-AR cells. As to the kind of experiment: Morphology of MDA-MB-231-AR cells. The following applies: 3 days. How it is done: MDA-MB-231 cells were stably transfected with AR using lentivirus. […] Live cells were visualized using a light-microscope and photographed. The cells were imaged at the same magnification and under the same microscopic conditions.
MDA-MB-231 cells were stably transfected with AR using lentivirus and were treated with vehicle or AR agonists at the indicated concentrations. At the end of 3 days of incubation, the cells were imaged under a microscope (40×).

Test [4] relates to HCI-13 tumor fragments. In words: HCI-13 ex vivo sponge culture, real time PCR. The following applies: for reversal of pS2 gene expression inhibited by Formula IX: 100 nM PMA or 100 ng/mL EGF before 1 μM Formula IX. Here is the method:
HCI-13 tumors grown in female mice were allowed to reach 500-1000 mm^3 before the animals were sacrificed and the tumors were excised to be used for sponge culture. Patient specimens frozen in liquid nitrogen in freezing medium were used for sponge culture. […] Tumors were sliced into small pieces (˜1 mm^3) and incubated on pre-soaked gelatin sponges (5 fragments/sponge) in 12 well plates containing 1.5 mL medium (MEM+10% FBS+2 mM L-glutamine+10 μg/mL insulin+10 μg/mL hydrocortisone+penicillin:streptomycin). The cultures were performed in triplicates for HCI-13 and singly for patient specimens. Pooled samples (n=5/sponge) from each sponge constituted one sample. Tissues were harvested after 3 days of treatment, RNA extracted, and expression of various genes measured. Although the same procedure was adopted for specimens obtained from breast cancer patients, the specimens were cultured singly (n=5/sponge=one sample) and not in triplicates as performed for HCI-13.

Test [5] has as its target T1, PR (Rattus norvegicus, UniProt Q63449).
T1 construct: expressed in transfected cells
T1 sequence (Q63449 1-923): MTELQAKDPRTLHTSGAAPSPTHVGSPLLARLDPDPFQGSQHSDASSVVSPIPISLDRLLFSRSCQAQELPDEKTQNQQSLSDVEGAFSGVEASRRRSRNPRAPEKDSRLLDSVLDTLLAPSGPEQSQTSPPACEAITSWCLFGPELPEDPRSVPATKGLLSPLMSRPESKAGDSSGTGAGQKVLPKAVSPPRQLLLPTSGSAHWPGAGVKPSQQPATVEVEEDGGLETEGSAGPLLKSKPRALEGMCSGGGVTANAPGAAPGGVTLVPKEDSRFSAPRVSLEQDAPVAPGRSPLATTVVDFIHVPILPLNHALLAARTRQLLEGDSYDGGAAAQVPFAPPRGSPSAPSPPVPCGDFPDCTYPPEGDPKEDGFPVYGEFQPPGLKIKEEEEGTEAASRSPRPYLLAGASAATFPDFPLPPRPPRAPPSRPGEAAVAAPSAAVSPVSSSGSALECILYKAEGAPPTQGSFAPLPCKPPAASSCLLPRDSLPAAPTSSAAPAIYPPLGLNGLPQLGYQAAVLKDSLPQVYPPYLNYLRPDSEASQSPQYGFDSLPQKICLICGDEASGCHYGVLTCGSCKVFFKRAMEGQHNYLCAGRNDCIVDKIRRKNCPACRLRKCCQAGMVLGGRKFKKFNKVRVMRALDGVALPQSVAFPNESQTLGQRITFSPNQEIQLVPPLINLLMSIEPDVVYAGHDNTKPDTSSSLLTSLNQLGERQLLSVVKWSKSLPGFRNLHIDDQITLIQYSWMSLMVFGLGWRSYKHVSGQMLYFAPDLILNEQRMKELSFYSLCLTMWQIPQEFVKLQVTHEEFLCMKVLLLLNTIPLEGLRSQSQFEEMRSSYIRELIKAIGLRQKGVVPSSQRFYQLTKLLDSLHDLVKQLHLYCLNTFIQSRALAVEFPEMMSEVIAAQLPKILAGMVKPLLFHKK
As to the kind of experiment: PR transactivation in HEK-293 cells. Here is the method:
(§2) Rat GR, MR, PR, ER-α and ER-β were individually cloned into a pCR3.1 vector backbone. Sequencing was performed to verify the absence of any mutations. HEK-293 cells were plated at 90,000 cells per well of a 24 well plate in Dulbecco's Minimal Essential Media supplemented with 5% charcoal-stripped FBS. […] Luciferase assays were performed 48 h after transfection. Transcriptional activation values are represented as firefly luciferase normalized to renilla luciferase.

Test [6] concerns the target T2, MR (Rattus norvegicus, UniProt P22199).
T2 construct: expressed in transfected cells
T2 sequence (P22199 1-981): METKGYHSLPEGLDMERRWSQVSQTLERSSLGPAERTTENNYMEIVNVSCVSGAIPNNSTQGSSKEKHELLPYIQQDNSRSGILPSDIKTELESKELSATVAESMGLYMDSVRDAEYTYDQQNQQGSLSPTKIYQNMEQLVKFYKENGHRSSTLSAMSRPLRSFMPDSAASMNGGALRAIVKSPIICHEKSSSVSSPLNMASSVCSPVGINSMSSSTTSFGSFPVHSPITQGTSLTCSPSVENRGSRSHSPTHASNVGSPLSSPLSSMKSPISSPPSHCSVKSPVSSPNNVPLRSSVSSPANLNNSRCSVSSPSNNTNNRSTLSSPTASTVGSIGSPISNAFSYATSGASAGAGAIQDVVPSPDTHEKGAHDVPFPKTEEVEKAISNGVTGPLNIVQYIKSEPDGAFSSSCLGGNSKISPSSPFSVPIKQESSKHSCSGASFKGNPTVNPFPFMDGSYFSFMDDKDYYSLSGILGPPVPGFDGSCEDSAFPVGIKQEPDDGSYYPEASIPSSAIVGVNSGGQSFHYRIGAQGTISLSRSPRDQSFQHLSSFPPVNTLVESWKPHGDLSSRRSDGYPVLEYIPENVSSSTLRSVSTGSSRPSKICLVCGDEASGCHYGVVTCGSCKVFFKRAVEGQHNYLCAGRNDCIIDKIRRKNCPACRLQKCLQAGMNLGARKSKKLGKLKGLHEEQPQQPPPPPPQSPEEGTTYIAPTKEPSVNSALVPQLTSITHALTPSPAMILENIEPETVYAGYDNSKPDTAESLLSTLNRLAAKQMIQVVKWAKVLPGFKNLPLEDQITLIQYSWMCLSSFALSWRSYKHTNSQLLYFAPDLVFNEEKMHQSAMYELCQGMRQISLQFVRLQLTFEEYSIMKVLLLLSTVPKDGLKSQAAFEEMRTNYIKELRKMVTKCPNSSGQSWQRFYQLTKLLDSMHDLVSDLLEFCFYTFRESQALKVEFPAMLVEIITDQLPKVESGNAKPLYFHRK
In words: MR transactivation in HEK-293 cells. The conditions noted are these: 1 nM. Here is the method: as §2

With `C[C@]12CCC(=O)C[C@@H]1CC[C@@H]1[C@@H]2CC[C@]2(C)[C@@H](O)CC[C@@H]12` [DHT, 5α-dihydrotestosterone, reference compound], in test [1] (AR-positive cells, 10 μM bicalutamide), the “growth inhibitory effects in the presence of bicalutamide” value is reported as “weakened growth inhibitory effects”. Further, the cell growth result in test [1] (cells with AR, 3 days, SRB) is on record as “inhibited”. For the same compound, in test [2], the cell growth entry is “inhibited”. For the same compound, in test [3], the cell morphology result is “altered the morphology into a more anchored phenotype”. In addition, the “inhibition of ER-induced pS2 and PR gene expression” value in test [4] (10 nM DHT, 1 μM Formula IX, 100 nM fulvestrant, 3 days) is on record as “effective”. In test [4] (3 days), the “AR-target gene FKBP5 expression” value is “induced” and the MKI67 expression entry was “inhibited”.

Turning to `CCCCCCCCCCCCCC(=O)O[C@@H]1[C@@H](C)[C@@]2(O)[C@@H](C=C(CO)C[C@]3(O)C(=O)C(C)=C[C@@H]23)[C@@H]2C(C)(C)[C@]12OC(C)=O` [PMA, phorbol 12-myristate 13-acetate], in test [4], the “reversal of pS2 gene expression inhibited by Formula IX” value was “completely reversed”.

Regarding `CC(=O)[C@H]1CC[C@H]2[C@@H]3CCC4=CC(=O)CC[C@]4(C)[C@H]3CC[C@]12C` [Progesterone, progesterone, reference compound], the PR activation in test [5] (1 nM) is given as 23 folds.

Turning to `C[C@@](O)(COc1ccc(C#N)cc1)C(=O)Nc1ccc(C#N)c(C(F)(F)F)c1` [R-enantiomer of Formula IX, (R)—N-(4-cyano-3-(trifluoromethyl)phenyl)-3-(4-cyanophenoxy)-2-hydroxy-2-methylpropanamide], the IC50 in test [5] stood at 1690 nM.

For `CC#C[C@]1(O)CC[C@H]2[C@@H]3CCC4=CC(=O)CCC4=C3[C@@H](c3ccc(N(C)C)cc3)C[C@@]21C` [RU486, reference compound], in test [5], the 50% inhibitory concentration (IC50) stood at 0.048 nM.

In the case of `C[C@]12CCC(=O)C=C1CC[C@@H]1[C@@H]2[C@@H](O)C[C@]2(C=O)[C@@H](C(=O)CO)CC[C@@H]12` [aldosterone, reference compound], the “MR activity, induction” value in test [6] was 60 fold.

For EGF: epidermal growth factor, the “reversal of pS2 gene expression inhibited by Formula IX” value in test [4] is reported as “only marginally reversed”.
